Our source for the IC50 values is patent US10894784B2, “Heteroarylbenzimidazole compounds” (BAYER PHARMA AKTIENGESELLSCHAFT, priority 2015, dated 2021).

For one assay, the target named is TBK1 (Homo sapiens (Human), UniProt Q9UHD2). The assay is described as follows: TBK1 low ATP kinase assay (in vitro assay 1). It is filed as biochemical. As to conditions: TBK1 low ATP kinase assay IC50, in vitro assay 1.
Sequence of TBK1 (Q9UHD2 whole entry): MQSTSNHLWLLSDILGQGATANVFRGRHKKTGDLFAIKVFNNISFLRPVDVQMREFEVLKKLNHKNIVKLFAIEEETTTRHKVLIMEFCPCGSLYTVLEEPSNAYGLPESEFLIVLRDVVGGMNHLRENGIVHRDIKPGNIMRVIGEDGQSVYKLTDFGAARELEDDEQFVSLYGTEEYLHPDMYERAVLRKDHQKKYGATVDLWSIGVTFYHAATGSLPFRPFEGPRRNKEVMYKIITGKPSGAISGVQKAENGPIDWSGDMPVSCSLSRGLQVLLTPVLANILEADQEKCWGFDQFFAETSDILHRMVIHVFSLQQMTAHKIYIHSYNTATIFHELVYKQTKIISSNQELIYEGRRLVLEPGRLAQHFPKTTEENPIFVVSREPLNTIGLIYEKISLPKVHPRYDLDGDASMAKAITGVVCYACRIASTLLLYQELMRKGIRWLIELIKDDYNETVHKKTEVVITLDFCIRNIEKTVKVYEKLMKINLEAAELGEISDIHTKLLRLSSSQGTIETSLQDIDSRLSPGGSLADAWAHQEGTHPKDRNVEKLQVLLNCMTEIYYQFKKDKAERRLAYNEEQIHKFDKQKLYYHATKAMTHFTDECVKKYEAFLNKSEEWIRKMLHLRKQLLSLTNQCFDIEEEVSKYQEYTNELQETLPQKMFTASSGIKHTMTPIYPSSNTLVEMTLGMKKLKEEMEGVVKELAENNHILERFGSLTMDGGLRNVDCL
With `CC(C)Oc1cncnc1-c1ccc2nc(Nc3cc(C(C)N4CCN(C(=O)CC(F)(F)F)CC4)ccn3)[nH]c2c1` (single isomer, unassigned) [Example 36.02, 3,3,3-trifluoro-1-(4-{(1R or 1S)-1-[2-({6-[5-(propan-2-yloxy)pyrimidin-4-yl]-1H-benzimidazol-2-yl}amino)pyridin-4-yl]ethyl}piperazin-1-yl)propan-1-one], the IC50 (commonly the concentration that inhibits the measured activity by half) worked out at 1.96 nM.

The assay is the same for the next values; noted with them: in vitro assay 1, read-out: TBK1 low ATP kinase assay IC50.
Take `O=C(CC(F)(F)F)N1CCN(Cc2ccnc(Nc3nc4ccc(-c5cnc(Cl)cn5)cc4[nH]3)c2)CC1` [Example 140.02, 1-{4-[(2-{[6-(5-chloropyrazin-2-yl)-1H-benzimidazol-2-yl]amino}pyridin-4-yl)methyl]piperazin-1-yl}-3,3,3-trifluoropropan-1-one]: the half-inhibitory concentration (IC50) is 540 nM.

For the compound `O=C(CC(F)(F)F)N1CCN(Cc2ccnc(Nc3nc4ccc(-c5ccnc(C(F)F)c5)cc4[nH]3)c2)CC1` [Example 139.02, 1-(4-{[2-({6-[2-(difluoromethyl)pyridin-4-yl]-1H-benzimidazol-2-yl}amino)pyridin-4-yl]methyl}piperazin-1-yl)-3,3,3-trifluoropropan-1-one], the IC50 turned out to be 15 nM.

In the case of `CC(c1ccnc(Nc2nc3ccc(-c4cnn(CC5CC5(F)F)c4)c(Cl)c3[nH]2)c1)N1CCN(C(=O)CC(F)(F)F)CC1` (single isomer, unassigned) [Example 70.01, 1-{4-[(1R or 1S)-1-(2-{[7-chloro-6-(1-{[(1RS)-2,2-difluorocyclopropyl]methyl}-1H-pyrazol-4-yl)-1H-benzimidazol-2-yl]amino}pyridin-4-yl)ethyl]piperazin-1-yl}-3,3,3-trifluoropropan-1-one], the IC50 was 0.88 nM. Same read-out and setting: the same measure for `Cc1noc(-c2ccc3nc(Nc4cc(CN5CCN(C(=O)c6cccnc6)CC5)ccn4)[nH]c3c2)n1` [Example 101.26, {4-[(2-{[6-(3-methyl-1,2,4-oxadiazol-5-yl)-1H-benzimidazol-2-yl]amino}pyridin-4-yl)methyl]piperazin-1-yl}(pyridin-3-yl)methanone]: 310 nM; for `CCOc1cnc(C)cc1-c1ccc2nc(Nc3cc(CN4CCN(C(=O)C5CC5)CC4)ccn3)[nH]c2c1` [Example 09.02, cyclopropyl{4-[(2-{[6-(5-ethoxy-2-methylpyridin-4-yl)-1H-benzimidazol-2-yl]amino}pyridin-4-yl)methyl]piperazin-1-yl}methanone]: 297 nM; for `Cc1cc(-c2ccc3nc(Nc4cc(CN5CCN(C(=O)OC(C)(C)C)CC5)ccn4)[nH]c3c2)nc(N(C)C)n1` [Example 178.01, tert-butyl 4-{[2-({6-[2-(dimethylamino)-6-methylpyrimidin-4-yl]-1H-benzimidazol-2-yl}amino)pyridin-4-yl]methyl}piperazine-1-carboxylate]: 890 nM. The same measure, in the same setting: the same measure for `CN(C)c1ccnc(-c2ccc3nc(Nc4cc(CN5CCN(C(=O)OC(C)(C)C)CC5)ccn4)[nH]c3c2)n1` [Example 181.01, tert-butyl 4-{[2-({6-[4-(dimethylamino)pyrimidin-2-yl]-1H-benzimidazol-2-yl}amino)pyridin-4-yl]methyl}piperazine-1-carboxylate]: 791 nM; for `COc1c(-c2ccc3nc(Nc4cc(CN5CCN(C(=O)CC(F)(F)F)CC5)ccn4)[nH]c3c2)ncnc1N(C)CC1CC1` [Example 110.04, 1-[4-({2-[(6-{6-[(cyclopropylmethyl)(methyl)amino]-5-methoxypyrimidin-4-yl}-1H-benzimidazol-2-yl)amino]pyridin-4-yl}methyl)piperazin-1-yl]-3,3,3-trifluoropropan-1-one]: 62 nM; for `COc1cc(-c2ccc3nc(Nc4cc(C(C)N5CCN(C(=O)CC(F)(F)F)CC5)ccn4)[nH]c3c2)ncn1` (single isomer, unassigned) [Example 34.03.01.B, 3,3,3-trifluoro-1-{4-[(1S or 1R)-1-(2-{[6-(6-methoxypyrimidin-4-yl)-1H-benzimidazol-2-yl]amino}pyridin-4-yl)ethyl]piperazin-1-yl}propan-1-one]: 50.1 nM. Regarding `CC(c1ccnc(Nc2nc3ccc(-c4cc(C(F)(F)F)nn4C)cc3[nH]2)c1)N1CCN(C(=O)CC(F)(F)F)CC1` (single isomer, unassigned) [Example 88.02, 3,3,3-trifluoro-1-(4-{(1R or 1S)-1-[2-({6-[1-methyl-3-(trifluoromethyl)-1H-pyrazol-5-yl]-1H-benzimidazol-2-yl}amino)pyridin-4-yl]ethyl}piperazin-1-yl)propan-1-one], the IC50 worked out at 860 nM. Still for that read-out and setting: the same measure for `O=C(CC(F)(F)F)N1CCN(Cc2ccnc(Nc3nc4ccc(-c5ccncc5OCC(F)(F)F)cc4[nH]3)c2)CC1` [Example 05.01, 3,3,3-trifluoro-1-(4-{[2-({6-[3-(2,2,2-trifluoroethoxy)pyridin-4-yl]-1H-benzimidazol-2-yl}amino)pyridin-4-yl]methyl}piperazin-1-yl)propan-1-one]: 52.2 nM. The same measure, in the same setting: the same measure for `CC(c1ccnc(Nc2nc3ccc(-c4ccncn4)cc3[nH]2)c1)N1CCN(C(=O)C2CC2)CC1` (racemic) [Example 23.04.02, (rac)-cyclopropyl{4-[1-(2-{[6-(pyrimidin-4-yl)-1H-benzimidazol-2-yl]amino}pyridin-4-yl)ethyl]piperazin-1-yl}methanone]: 2.42 nM; for `COc1nccc(-c2ccc3nc(Nc4cc(CN5CCN(C(=O)C6CCC6)CC5)ccn4)[nH]c3c2)n1` [Example 25.01.02, cyclobutyl{4-[(2-{[6-(2-methoxypyrimidin-4-yl)-1H-benzimidazol-2-yl]amino}pyridin-4-yl)methyl]piperazin-1-yl}methanone]: 218 nM.

As to `Cc1noc(-c2ccc3nc(Nc4cc(CN5CCN(C(=O)C6CCC6)C[C@H]5C)ccn4)[nH]c3c2)n1` [Example 16.03.05, cyclobutyl{(3R)-3-methyl-4-[(2-{[6-(3-methyl-1,2,4-oxadiazol-5-yl)-1H-benzimidazol-2-yl]amino}pyridin-4-yl)methyl]piperazin-1-yl}methanone], the IC50 turned out to be 84.7 nM. The same measure, in the same setting: the same measure for `O=C(C1CC1)N1CCN(Cc2ccnc(Nc3nc4ccc(-c5ccsc5Cl)cc4[nH]3)c2)CC1` [Example 175.03, {4-[(2-{[6-(2-chlorothiophen-3-yl)-1H-benzimidazol-2-yl]amino}pyridin-4-yl)methyl]piperazin-1-yl}(cyclopropyl)methanone]: 223 nM; for `Cc1cc(-c2ccc3nc(Nc4cc(CN5CCN(C(=O)C6CC6)CC5)ccn4)[nH]c3c2)ccn1` [Example 01.02, cyclopropyl{4-[(2-{[6-(2-methylpyridin-4-yl)-1H-benzimidazol-2-yl]amino}pyridin-4-yl)methyl]piperazin-1-yl}methanone]: 42 nM. With `Cc1noc(-c2ccc3nc(Nc4cc(CN5CCN(C(=O)OC(C)(C)C)C[C@H]5C)ccn4)[nH]c3c2)n1` [Example 16.03.01, tert-butyl (3R)-3-methyl-4-[(2-{[6-(3-methyl-1,2,4-oxadiazol-5-yl)-1H-benzimidazol-2-yl]amino}pyridin-4-yl)methyl]piperazine-1-carboxylate], the IC50 came to 125 nM.

In the case of `COc1cnc(OCC2CC2)nc1-c1ccc2nc(Nc3cc(CN4CCN(C(=O)OC(C)(C)C)CC4)ccn3)[nH]c2c1` [Example 64.01.01, tert-butyl 4-{[2-({6-[2-(cyclopropylmethoxy)-5-methoxypyrimidin-4-yl]-1H-benzimidazol-2-yl}amino)pyridin-4-yl]methyl}piperazine-1-carboxylate], the half-maximal inhibitory concentration (IC50) came out at 217 nM.

Take `COc1ccc(-c2ccc3nc(Nc4cc(CN5CCN(C(=O)C6CC6)CC5)ccn4)[nH]c3c2)nn1` [Example 47.01, cyclopropyl{4-[(2-{[6-(6-methoxypyridazin-3-yl)-1H-benzimidazol-2-yl]amino}pyridin-4-yl)methyl]piperazin-1-yl}methanone]: the IC50 came to 394 nM. The same measure, in the same setting: the same measure for `Cc1noc(C)c1-c1cc(-c2ccc3nc(Nc4cc(CN5CCN(C(=O)CC(F)(F)F)CC5)ccn4)[nH]c3c2)ncn1` [Example 92.02, 1-(4-{[2-({6-[6-(3,5-dimethyl-1,2-oxazol-4-yl)pyrimidin-4-yl]-1H-benzimidazol-2-yl}amino)pyridin-4-yl]methyl}piperazin-1-yl)-3,3,3-trifluoropropan-1-one]: 450 nM; for `COc1cncnc1-c1ccc2nc(Nc3cc(C(C)N4CCN(C(=O)C5CCC5)CC4)ccn3)[nH]c2c1` (single isomer, unassigned) [Example 35.03.04.B, cyclobutyl{4-[(1R or 1S)-1-(2-{[6-(5-methoxypyrimidin-4-yl)-1H-benzimidazol-2-yl]amino}pyridin-4-yl)ethyl]piperazin-1-yl}methanone]: 34.5 nM. Consider `CC(c1ccnc(Nc2nc3ccc(-c4cc(C(F)(F)F)ncn4)cc3[nH]2)c1)N1CCN(C(=O)CC(F)(F)F)CC1` (single isomer, unassigned) [Example 29.02.01.A, 3,3,3-trifluoro-1-(4-{(1R or 1S)-1-[2-({6-[6-(trifluoromethyl)pyrimidin-4-yl]-1H-benzimidazol-2-yl}amino)pyridin-4-yl]ethyl}piperazin-1-yl)propan-1-one], for which the IC50 was determined as 92.3 nM. On the same count and under the same terms, the same measure for `Cc1nc(-c2ccc3nc(Nc4cc(CN5CCN(C(=O)CC(F)(F)F)CC5)ccn4)[nH]c3c2)c2ccsc2n1` [Example 104.01, 3,3,3-trifluoro-1-{4-[(2-{[6-(2-methylthieno[2,3-d]pyrimidin-4-yl)-1H-benzimidazol-2-yl]amino}pyridin-4-yl)methyl]piperazin-1-yl}propan-1-one]: 2600 nM; for `O=C(C1CC1)N1CCN(Cc2ccnc(Nc3nc4ccc(-c5ncnc6c5COC6)cc4[nH]3)c2)CC1` [Example 182.03, cyclopropyl{4-[(2-{[6-(5,7-dihydrofuro[3,4-d]pyrimidin-4-yl)-1H-benzimidazol-2-yl]amino}pyridin-4-yl)methyl]piperazin-1-yl}methanone]: 136 nM; for `Cc1noc(-c2ccc3nc(Nc4cc(CN5CCN(C(=O)CC(F)(F)F)CC5)c(Br)cn4)[nH]c3c2)n1` [Example 125.02, 1-{4-[(5-bromo-2-{[6-(3-methyl-1,2,4-oxadiazol-5-yl)-1H-benzimidazol-2-yl]amino}pyridin-4-yl)methyl]piperazin-1-yl}-3,3,3-trifluoropropan-1-one]: 650 nM.
